What was measured:
[1] = system: Staphylococcus aureus; experiment: Antibacterial activity against methicillin-resistant Staphylococcus aureus; type: functional
[2] = system: Staphylococcus aureus; experiment: Antibacterial activity against multidrug-resistant Staphylococcus aureus; type: functional

Compound	MIC [1] [µg/mL]	MIC [2] [µg/mL]
C=C[C@@H](O)C#CC#C[C@H](O)CCO	> 128	> 128
CC1=C2[C@H](O)[C@H](C(C)C)CC[C@@]2(C)[C@H](O)C[C@H]1O (relative stereo)	> 128	> 128

Source: ChEMBL document CHEMBL1151216, “New constituents of Artemisia monosperma” (2004)
